# Results published in PMC6627849, “Distant Non-Obvious Mutations Influence the Activity of a Hyperthermophilic Pyrococcus furiosus Phosphoglucose Isomerase” (Biomolecules, 2019).
# Changes are numbered by the printed parent chain. Names and notes keep the numbering of the source.
# B1: PfPGI mutant P132R/Y133G (cupin-type phosphoglucose isomerase of Pyrococcus furiosus) (enzyme)
# chain: MYKEPFGVKVDFETGIIEGAKKSVRRLSDMEGYFVDERAWKELVEKEDPVVYEVYAVEQEEKEGDLNFATTVLYPGKVGKEFFFTKGHFHAKLDRAEVYVALKGKGGMLLQTPEGDAKWISMEPGTVVYVPRGWAHRTVNIGDEPFIFLAIYPADAGHDYGTIAEKGFSKIVIEENGEVKVVDNPRWKK
# notes: cupin-type phosphoglucose isomerase (PfPGI, EC 5.3.1.9), gene pgiA, Pyrococcus furiosus; monomeric subunit 21.5 kDa; the models have no missing residues, residues up to Lys189 are named; Crystallised with MnCl2 and F6P; 5PAA found in the active site; also called RG; mutant RG; source: E. coli (pET24d), overexpressed and purified as described previously [32]
# B2: PfPGI mutant P132V (cupin-type phosphoglucose isomerase of Pyrococcus furiosus) (enzyme)
# chain: B1 chain with R132V, G133Y
# notes: cupin-type phosphoglucose isomerase (PfPGI, EC 5.3.1.9), gene pgiA, Pyrococcus furiosus; monomeric subunit 21.5 kDa; the models have no missing residues, residues up to Lys189 are named; Crystals grown with MnCl2 and soaked with F6P; also called VY; mutant VY; source: E. coli (pET24d), overexpressed and purified as described previously [32]
# B3: PfPGI mutant P132A/Y133G (cupin-type phosphoglucose isomerase of Pyrococcus furiosus) (enzyme)
# chain: B1 chain with R132A
# notes: cupin-type phosphoglucose isomerase (PfPGI, EC 5.3.1.9), gene pgiA, Pyrococcus furiosus; monomeric subunit 21.5 kDa; the models have no missing residues, residues up to Lys189 are named; Crystallised with MnCl2 and F6P; 5PAA found in the active site; The two subunits of the dimer are related by crystal symmetry; also called AG; mutant AG; source: E. coli (pET24d), overexpressed and purified as …
# B4: PfPGI mutant P132A/Y133D (cupin-type phosphoglucose isomerase of Pyrococcus furiosus) (enzyme)
# chain: B1 chain with R132A, G133D
# notes: cupin-type phosphoglucose isomerase (PfPGI, EC 5.3.1.9), gene pgiA, Pyrococcus furiosus; monomeric subunit 21.5 kDa; the models have no missing residues, residues up to Lys189 are named; Structure holds only Mn2+ in the active site; also called AD; mutant AD; source: E. coli (pET24d), overexpressed and purified as described previously [32]
# Columns and labels:
# [1] = target: T1, PfPGI (cupin-type phosphoglucose isomerase) (Pyrococcus furiosus, UniProt P83194, P132R/Y133G); assay: X-ray crystal structure; assay type: binding; details: Mn2+ in active site; 5PAA formed from F6P in the crystallization solution; pH 5.5
# T1 construct: gene pgiA; pgiA in pET24d, expressed in E. coli, heat treatment plus Q-Sepharose and Superdex 200
# [2] = target: T2, PfPGI (cupin-type phosphoglucose isomerase) (Pyrococcus furiosus, UniProt P83194, P132A/Y133D); assay: EPR of Mn2+ coordination on adding F6P; assay type: binding; details: 10 mM F6P, 0.2 mM MnCl2, pH 8.0; spectra at 13 K; F6P not seen in the crystal structure
# T2 construct: gene pgiA; pgiA in pET24d, expressed in E. coli, heat treatment plus Q-Sepharose and Superdex 200
# [3] = target: T1, PfPGI (cupin-type phosphoglucose isomerase); assay: EPR of Mn2+ coordination on adding F6P; assay type: binding; details: 10 mM F6P, 0.2 mM MnCl2, pH 8.0; spectra at 13 K
# [4] = target: T3, PfPGI (cupin-type phosphoglucose isomerase) (Pyrococcus furiosus, UniProt P83194, P132A/Y133G); assay: EPR of Mn2+ coordination on adding F6P; assay type: binding; details: 10 mM F6P, 0.2 mM MnCl2, pH 8.0; spectra at 13 K
# T3 construct: gene pgiA; pgiA in pET24d, expressed in E. coli, heat treatment plus Q-Sepharose and Superdex 200
# [5] = target: the molecule itself; assay: crystal structure; PfPGI mutants at 11.5 mg/mL in 10 mM Tris/HCl pH 8.0, 50 mM F6P, 5 mM MnCl2; molecular replacement with wild-type PfPGI (PDB 1X82); RG, AD and VY with chains A and B, AG with the two subunits related by crystal symmetry
# T3 sequence (P83194 whole entry P132A/Y133G): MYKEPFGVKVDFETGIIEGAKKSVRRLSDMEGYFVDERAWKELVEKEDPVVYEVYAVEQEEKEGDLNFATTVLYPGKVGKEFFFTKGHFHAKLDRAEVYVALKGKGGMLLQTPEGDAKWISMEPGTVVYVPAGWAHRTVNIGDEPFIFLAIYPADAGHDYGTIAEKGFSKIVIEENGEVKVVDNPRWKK
# T2 sequence (P83194 whole entry P132A/Y133D): as the sequence (P83194 whole entry P132A/Y133G) above, with G133D counted along it
Molecule,binding result [5],other results
"O=C(O)[C@@H](O)[C@H](O)[C@H](O)COP(=O)(O)O [5PAA, 5-phosphoarabinonic acid]",–,"X-ray crystal structure [1]: 5-phosphoarabinonic acid (5PAA), rather than F6P (as added to the crystallization mixture) was bound"
"O=P(O)(O)OC[C@H]1OC(O)(CO)[C@@H](O)[C@@H]1O (some centres unmarked) [F6P, fructose-6-phosphate]",–,EPR of Mn2+ coordination on adding F6P [2]: addition of F6P to any of the manganese-containing PfPGI mutants lead to a collapse; EPR of Mn2+ coordination on adding F6P [3]: addition of F6P to any of the manganese-containing PfPGI mutants lead to a collapse; EPR of Mn2+ coordination on adding F6P [4]: addition of F6P to any of the manganese-containing PfPGI mutants lead to a collapse
B1,binds,–
B2,binds,–
B3,binds,–
B4,binds,–
